One assay deals with T1, Gly137Asp LcαE7 (Lucilia cuprina, UniProt Q25252, G137D).
T1 sequence (Q25252 1-570 G137D): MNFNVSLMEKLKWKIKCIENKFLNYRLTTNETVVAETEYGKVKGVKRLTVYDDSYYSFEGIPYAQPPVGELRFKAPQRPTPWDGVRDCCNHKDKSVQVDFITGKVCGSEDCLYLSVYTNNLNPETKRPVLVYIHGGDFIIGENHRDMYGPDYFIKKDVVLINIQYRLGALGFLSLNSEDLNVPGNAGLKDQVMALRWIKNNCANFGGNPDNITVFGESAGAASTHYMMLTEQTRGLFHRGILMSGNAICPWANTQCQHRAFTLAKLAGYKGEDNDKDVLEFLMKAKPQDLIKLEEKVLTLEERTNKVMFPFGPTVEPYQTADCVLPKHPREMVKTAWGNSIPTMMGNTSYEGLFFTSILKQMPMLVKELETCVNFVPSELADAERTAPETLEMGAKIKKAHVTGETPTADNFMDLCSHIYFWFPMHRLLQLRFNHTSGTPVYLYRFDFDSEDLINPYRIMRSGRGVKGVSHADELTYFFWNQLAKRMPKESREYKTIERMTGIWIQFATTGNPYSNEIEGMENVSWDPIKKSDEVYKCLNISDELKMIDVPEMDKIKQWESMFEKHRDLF
Briefly: Enzyme inhibition assay with 4-nitrophenol butyrate, Gly137Asp variant. It counts as biochemical.
Conditions: not given
As to the method:
Inhibition of wild-type αE7 and the Gly137Asp αE7 variant was determined by a competition assay between the native-substrate analogue 4-nitrophenol butyrate (Sigma) and the boronic acid compounds. Initially, the Michalis constant (KM) with 4-nitrophenol butyrate was measured for both enzymes to determine an appropriate concentration of substrate for use in the competition assays. Formation of the 4-nitrophenolate product of hydrolysis was monitored at 405 nm in the presence of enzyme and eight different concentrations of substrate. 4-nitrophenol butyrate was prepared in methanol to 100 mM and serially diluted 1-in-2 to achieve concentrations from 100 mM to 0.8 mM. Enzyme stocks were prepared in 4 mg/ml bovine serum albumin (Sigma) to maintain enzyme stability. Reactions were prepared by pipetting 178 μl assay buffer (100 mM NaCl, 20 mM HEPES pH 7.5) and 2 μl substrate (final concentrations of 1000 to 8 μM) into 300 μl wells of a 96-well plate. The reaction was initiated by the addition of 20 μl enzyme (final concentration 2.5 nM for wildtype αE7 and 4 nM for Gly137Asp αE7). Product formation was monitored for four minutes at room temperature using an Epoch microplate spectrophotometer (BioTek) and the initial rates of ester hydrolysis were determined by linear regression using GraphPad Prism. The Michalis constant was determined by fitting the initial rates to the Michalis-Menton equation (FIG. 10).
Enzyme inhibition with the boronic acid compounds was determined by assaying the initial rate of 4-nitrophenol butyrate hydrolysis in the presence of either neat DMSO or the boronic acid compounds in DMSO. Compounds were prepared by serially diluting 1-in-3 an initial 10 mM stock to achieve concentrations from 10 mM to 2 nM. Reactions were prepared by pipetting 178 μl assay buffer supplemented with substrate to a final concentration equal to the KM of the enzyme (15 μM for wildtype αE7 and 250 μM for Gly137Asp αE7) into wells of a 96-well plate. 2 μl neat DMSO or 2 μl serially diluted inhibitor (final concentrations of 100 μM to 20 pM) were added to the wells. The reaction was initiated by the addition of 20 μl enzyme (final concentration 0.5 nM for wildtype αE7 and 10 nM for Glyl37Asp αE7). Product formation was monitored for four minutes at room temperature and the initial rates of ester hydrolysis were determined by linear regression. To determine the concentration of boronic acid compounds required to inhibit 50% of esterase activity (IC50), a four-parameter sigmoidal dose-response curve was fitted to percentage inhibition using GraphPad Prism (FIGS. 7 and 8). Ki values were determined using the Cheng-Prusoff equation assuming competitive inhibition (Yung-Chi, C. & Prusoff W. H. Relationship between the inhibition constant (KI) and the concentration of inhibitor which causes 50 percent inhibition (150) of an enzymatic reaction. Biochem. Pharmacol. 22, 3099-3108 (1973)).
The two most common CBE-mediated insecticide resistance mechanisms involve increased protein expression, or mutation to gain new catalytic (OP-hydrolase) functions. Compounds 1 to 5 were tested against the resistance associated Gly137Asp variant of LcαE7^17,27 (Table 1). The Glyl37Asp mutation is located in the oxyanion hole and positions a new general base in the active site to catalyze dephosphorylation of the catalytic serine. Thus, compounds that inhibit WT LcαE7 as well as this common resistance associated Glyl37Asp variant would increase the efficacy of OPs by targeting both detoxification routes. Encouraged by the activity of the boronic acids 1 to 5, the compounds were tested against the Gly137Asp variant of LcαE7 (Table 1).
Turning to `OB(O)c1cc(Br)c2ccccc2c1F` [Compound 3.6], the affinity, expressed as Ki, was 71 nM.
Turning to `OB(O)c1cc(Br)cc(Oc2ccccc2)c1` [Compound 3.10, 3-Bromo-5-phenoxyfenylboronic acid], the affinity, expressed as Ki, was 18 nM.
The same measure, in the same setting: to `CC(C)(C)Oc1ccc(B(O)O)cc1Br` [Compound 3.12] belongs 990 nM; to `OB(O)c1cc(Br)cc(OCc2ccccc2)c1` [Compound 3.9], 25 nM; to `Cc1ccc(B(O)O)cc1OCc1ccccc1` [Compound 2], 29 nM.
The same measure, in the same setting: the result for `OB(O)c1ccccc1` [PBA, phenylboronic acid, reference compound] reads 450 nM; that for `OB(O)c1cc(Br)cc(OC(F)(F)F)c1` [Compound 3.8], 110 nM.
For the compound `OB(O)c1cc(Br)cc(N2CCCCC2)c1` [Compound 3.3], the Ki (commonly the dissociation constant of the complex between target and ligand, obtained from inhibition or displacement) is 150 nM.
Turning to `OB(O)c1cc(Br)cc(N2CCCC2)c1` [Compound 3], the inhibition constant (Ki) came to 110 nM.
Compound `OB(O)c1ccc(OCc2ccccc2F)c(Cl)c1` [Compound 5, 3-Chloro-4(2′-fluorobenzyloxy) phenylboronic acid] gave a Ki of 170 nM.
`CN1CCN(c2cc(Br)cc(B(O)O)c2)CC1` [Compound 3.4] returned a Ki of 1000 nM.
`OB(O)c1cc(Br)cc2c1OCC2` [Compound 3.5] returned a Ki of 440 nM.
On the same count and under the same terms, to `O=C(c1cc(Cl)cc(B(O)O)c1)N1CCOCC1` [Compound 3.11] belongs 1000 nM.
Regarding `CC(C)Oc1cc(Br)cc(B(O)O)c1` [Compound 3.7, 3-Bromo-5-isopropoxyphenylboronic acid], the Ki stood at 76 nM.
Still for that read-out and setting: the result for `OB(O)c1ccc2ccccc2c1` [Compound 4] reads 190 nM.
In turn, `Cc1ccc(B(O)O)cc1Br` [Compound 1] yielded a Ki of 49 nM.

The same assay, now with this note: Cheng-Prusoff from dose-response; 4-nitrophenol butyrate; read-out: Ki Gly137Asp LcαE7.
With `OB(O)c1cc(Br)cc(N2CCOCC2)c1` [Compound 3.1], the Ki amounted to 430 nM.

(Values after patent US20190327974A1, “SYNERGISTS FOR IMPROVED PESTICIDES” (priority 2017, published 2019).)
